Consider two compounds from US20220242827A1, “PHENYLMETHYLPYRAZOLONE COMPOUND HAVING A NOVEL CRYSTAL FORM, AND METHOD FOR PRODUCING SAME” (SIA EMTEKO HOLDING, priority 2019, published 2022).

Structures are written as SMILES. ≈ marks a conversion by molar mass, not a printed value.

What all share (assay type): physicochemical
Data set [1] in a line: Storage stability in climate chamber at 25° C. and 60% relative humidity for 24 months. The conditions noted are these: for pH: normalization 4.5-5.5; for Quantification: normalization more than 99.0; for Impurity 1: normalization not more than 0.1%; for Sum of impurities: normalization not more than 0.3%; for stability on storage (content of the basic substance, content of impurities, pH): 60% humidity. The procedure:
The improved stability of the resulting polymorphic form was confirmed by experiments in a climate chamber at 25° C. and 60% humidity.
Comparison of Critical Quality Indicators of Known and Novel Polymorphic Forms of FMP After 24 Months of Storage at 25° C. and 60% Relative Humidity

Data set [2] can be described thus: Electrostatic adhesion model experiment in 316L stainless steel tank. The following applies: for surface area of the tank covered with the FMP crystals: 316L stainless steel tank, after thorough mixing and release. As for the experimental part:
The following model experiment was performed to test the ability of electrostatic adhesion of the new polymorphic form. The FMP sample was placed in a 316L stainless steel tank, similar to the steel used to make working parts of industrial pharmaceutical equipment. After thorough mixing in the tank, the PMF was released from it and the surface area of the tank covered with the FMP crystals was measured. For the known polymorphic form, this figure was 19.5%, for the new form—12.8%, which is about one third less.

A further data set can be described thus: Solubility in water. The procedure:
The solubility of the obtained samples was checked by dissolving in water with vigorous stirring for 30 minutes at 25° C.

The mark [3] stands for this setting: 24 months at 25° C. and 60% relative humidity.

In general, solubility refers to the dissolved amount per volume that the medium holds. With `CC1=NN(c2ccccc2)C(=O)C1` [A new form of FMP, 1-phenyl-3-methyl-5-pyrazolone], in data set [1] (0 months), the Description entry was “White”, the pH is listed as 4.8, the Quantification stood at 99.8% and the “Impurity 1” value came to 0.03%. Also, the Sum of impurities in data set [1] (0 months) was determined as 0.09%. In data set [1] (setting [3]), the Description entry is listed as “White”, the pH is given as 4.8, the Quantification is 99.7% and the “Impurity 1” value turned out to be 0.04%. Besides, in data set [1] (setting [3]), the Sum of impurities came out at 0.10%. The “stability on storage (content of the basic substance, content of impurities, pH)” value in data set [1] (24 months, 25° C.) is reported as “more stable”. For the same compound, the “stability on storage (content of the basic substance, content of impurities, pH)” value in data set [1] (24 months, 25° C., listed as resulting polymorphic form) is listed as “did not change its key characteristics”. The “rate of impurity formation” value in data set [1] (24 months, 25° C., 60% relative humidity, versus known form) is “much lower”. Besides, the “surface area of the tank covered with the FMP crystals” value in data set [2] is reported as 12.8%. The “electrostatic index (comparison among the samples)” value in data set [2] (among samples #1 to #6) is given as “best”. Besides, the “solubility (comparison among the samples)” value in “Solubility in water” (among samples #1 to #6) was “best”. Besides, in the data set “Solubility in water” (water, 25 °C, thermodynamic from solid, dissolving in water with vigorous stirring for 30 minutes at 25° C.), the concentration in solution (solubility at 30 min) was 0.3 mg/mL (≈ 1720 µM).
Consider `CC1=NN(c2ccccc2)C(=O)C1` [Known form of FMP, 1-phenyl-3-methyl-5-pyrazolone, reference compound], for which, in data set [1] (0 months), the Description entry was “White”, the pH was 4.7, the Quantification amounted to 99.8% and the “Impurity 1” value is listed as 0.02%. In data set [1] (0 months), this compound yielded a Sum of impurities of 0.07%. In data set [1] (setting [3]), the Description result is recorded as “White”, the pH was 4.6, the Quantification is 99.6% and the “Impurity 1” value stood at 0.08%. Also, the Sum of impurities in data set [1] (setting [3]) was found to be 0.18%. Further, the “surface area of the tank covered with the FMP crystals” value in data set [2] (listed as known polymorphic form) stood at 19.5%. Moreover, the solubility in water result in “Solubility in water” (dissolving in water with vigorous stirring for 30 minutes at 25° C., listed as known forms) is listed as “less than 0.2 mg/ml”.
